Reference: publication PMC10914731, “Homo-BacPROTAC-induced degradation of ClpC1 as a strategy against drug-resistant mycobacteria” (Nature Communications, 2024)
In brackets after ≈: the same amount, converted by molar mass. Several values for one entry are separate records, joined by “and”; a condition that tells them apart may be missing. Equal values may be shown once. Read-outs that look alike come from different tables or passages of the source. *1 amine or outer side, *2 acyl side, *3 side chain or, on linkers, in order; H or OH if unused. Where a SMILES comes first, the peptide text is derived from it. [ ]: non-standard residue; d: D form. X1 = C#CCn1cc(C[C@H](N[*:1])C(=O)[*:2])c2ccccc21; NMeLeu(5-OH,4R) = CN[C@@H](C[C@@H](C)CO)C(=O)O; Phe(βR-OMe) = CO[C@H](c1ccccc1)[C@H](N)C(=O)O; NMeL = CN[C@@H](CC(C)C)C(=O)O

Columns and labels:
[1] = Microsomal stability, human; assay type: in vitro ADME
Summary of the method: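 Steps: incubate compound at 1 µmol/l with liver microsomes (0.5 mg/ml) plus 1 mM NADPH in pH 7.5 Tris-HCl buffer containing MgCl2 at 37 °C; stop aliquots over time with acetonitrile; centrifuge and measure remaining compound by LC-MS/MS; fit first-order decay and convert half-life to %Qh.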

[2] = in vivo; assay type: in vivo, BALB/cAnNCrl mice
Description: The in-life experimental procedures were conducted in strict compliance with German and European animal welfare legislation in an AAALAC-accredited facility. Male BALB/cAnNCrl mice (Charles River Laboratories Research Models and Services, 97633 Sulzfeld, Germany) were used. Animals were 9 weeks old at dosing with a body weight of 21.6–24.3 g. Animals were delivered free of pathogens according to FELASA recommendations with a health certificate provided by the breeder. Upon receipt, the state of health and sex was checked. Animals acclimatized for at least 5 days before the commencement of the in-life phase. During acclimation, animals were group-housed in individually ventilated cages, on birch wood granulate bedding with species-specific enrichment (nesting material, mouse igloo, gnawing wood). During experimental conduct, animals were housed in conventional cages with elevated grid floors. Grid floor was used to avoid contamination with test item material excreted via urine and feces and subsequent reuptake during fur grooming. No bedding and enrichment were provided except a cage divider, which can be used as a shelter. Animals always had unlimited access to food and water and received a pelleted, total pathogen-free maintenance diet and tap drinking water, sterilized by filter.
In case of incomplete dissolution, the formulation was filtered at 40 °C (non-pyrogenic sterile-R filter, 0.2 µm). All formulations were stirred warm until administration. Actual test item content was determined bioanalytically.
Male BALB/cAnNCrl mice (n = 3 per test item and administration route) received a bolus dose of the formulated test item(s) (1 mg/kg iv, 30 mg/kg po) at t = 0 h, and whole blood samples were collected subsequently (35 µl at 0.1 (iv) / 0.25 (po), 0.5, 1, 2, 4, 6 h; 600 µl at sacrifice after 24 h). Animals were euthanized by exsanguination in deep isoflurane anesthesia. Whole blood samples were immediately stored on ice at about 4 °C. Plasma was separated by centrifugation at approximately 10,000 × g for 5 m at +4 °C. Centrifugation of each blood sample was started within 10 m after collection. A single aliquot of at least 15 µL of plasma was prepared and immediately stored at −20 ± 5 °C.
Sample proteins were precipitated with ACN (1 + 12, v/v) containing internal standard, and supernatants analyzed by quantitative UPLC-MS/MS: Phenomenex Luna Omega C18, 2.1 × 50 mm, 1.6 µm, 40 °C, gradient between 10% - 90% ACN with 0.1% formic acid. LogD determination: Lipophilicity of the test items, expressed as chromLogD7.5, was assessed by measuring their chromatographic retention times on C18-material. The chromatographic retention versus logD7.5 values of a series of thirteen n-alkan-2-ones (2-butanone – 2-hexadecanone) served as lipophilicity calibration.

[3] = test system: non-replicating cells of Mtb H37Rv; assay type: cell-based, Mycobacterium tuberculosis; conditions: three replicate columns
[4] = test system: Pseudomonas aeruginosa; test: MIC ESKAPES panel, Pseudomonas aeruginosa; assay type: cell-based
Description: Minimum inhibitory concentration (MIC) against ESKAPES panel of Gram positive and Gram negative pathogens (Enterococcus faecium, Staphylococcus aureus, Klebsiella pneumoniae, Acinetobacter baumannii, Pseudomonas aeruginosa, Enterobacter cloacae and Salmonella typhimurium [ESKAPES panel]) were determined at the FNDR by the standard broth dilution method [CLSI, M100]. […] Mueller Hinton broth (MHB) medium was used to grow ESKAPES panel strains. The individual cultures were added as 200 μL (inoculum of 3–7 × 10^5 cfu/ml) to the respective assay plates in each well to all columns, except the media control (200 μL of medium). […] The assay plates were incubated at 37 °C, and the results were noted on the 2nd day as turbidometric readout. The clear wells indicated inhibition of growth, while the turbid wells indicated uninhibited growth.

[5] = test system: Mtb # 8673; test: microbe, parasite or virus in culture; assay type: cell-based
[6] = test system: Mycobacterium abscessus; test: microbe, parasite or virus in culture; assay type: cell-based
[7] = test system: Mtb H37Rv in THP-1 macrophages; test: Intracellular MIC assay in THP-1 macrophages; assay type: cell-based, Mycobacterium tuberculosis; design: Emax: unit not given here
[8] = iv bolus, individual animals 1-3
[9] = male, BALB/cAnNCrl, mouse, in vivo, iv, 1.062 umol/kg, iv bolus, individual animals 1-3
[10] = male, BALB/cAnNCrl, mouse, in vivo, iv, 1.062 umol/kg, iv bolus, mice, Mean

C#CCn1cc(C[C@@H]2NC(=O)[C@H](C(C)C)NC(=O)[C@H](CC(C)C)N(C)C(=O)[C@H](C(C)C)NC(=O)[C@H]([C@H](OC)c3ccccc3)NC(=O)[C@H](C)NC(=O)[C@H](C[C@@H](C)CO)N(C)C2=O)c2ccccc21 [Compound 5] (cyclo(A[Phe(βR-OMe)]V[NMeL]V[X1][NMeLeu(5-OH,4R)]))
Microsomal Stability Human QH ([1]; Human): >88.400% | Microsomal Stability Human ([1]; clearance in microsomes): > 88 %Qh | AUC0-inf/Dose [2, 8]: 180 h nM/(nmol kg-1) and 169 h nM/(nmol kg-1) and 158 h nM/(nmol kg-1) | AUC0-t/Dose [2, 8]: 177 h nM/(nmol kg-1) and 161 h nM/(nmol kg-1) and 154 h nM/(nmol kg-1) | CL [2, 8]: 98.5 mL/min/kg and 106 mL/min/kg | CL PL QH [2, 8]: 103.0% and 109.0% and 117.0% | Cmax/Dose [2, 8]: 488 nM/(nmol kg-1) and 361 nM/(nmol kg-1) and 396 nM/(nmol kg-1) | MRT [2, 8]: 54 min and 42 min | Plasma concentration 0.1 h [2, 8]: 518 nM and 384 nM and 421 nM | Plasma concentration 0.5 h [2, 8]: 85.1 nM and 88.1 nM and 71.5 nM | Plasma concentration 1 h [2, 8]: 33.6 nM and 37.9 nM and 32.6 nM | Plasma concentration 2 h [2, 8]: 12.3 nM and 14.2 nM and 13.4 nM | Plasma concentration 4 h [2, 8]: 2.7 nM and 4.8 nM and 2.9 nM | Vss [2, 8]: 5.6 L/kg and 4.6 L/kg | t1/2 [2, 8]: 78 min | AUC0-inf/Dose ([2]; iv bolus, mice, Mean): 169 h nM/(nmol kg-1) | AUC0-t/Dose ([2]; iv bolus, mice, Mean): 164 h nM/(nmol kg-1) | CL PL QH ([2]; iv bolus, mice, Mean): 110.0% | Cmax/Dose ([2]; iv bolus, mice, Mean): 415 nM/(nmol kg-1) | Plasma concentration 0.1 h ([2]; iv bolus, mice, Mean): 441 nM | Plasma concentration 0.5 h ([2]; iv bolus, mice, Mean): 81.6 nM | Plasma concentration 1 h ([2]; iv bolus, mice, Mean): 34.7 nM | Plasma concentration 2 h ([2]; iv bolus, mice, Mean): 13.3 nM | Plasma concentration 4 h ([2]; iv bolus, mice, Mean): 3.5 nM | clearance [2, 9]: 92.3 mL/min/kg | half-life [2, 9]: 54 min | MRT ([2]; male, BALB/cAnNCrl, mouse, in vivo, iv, 1.062 umol/kg, iv bolus, individual animals 1-3, read-out: MRT): 36 min | Vd ([2]; male, BALB/cAnNCrl, mouse, in vivo, iv, 1.062 umol/kg, iv bolus, individual animals 1-3, read-out: Vss): 3.5 L/kg | clearance [2, 10]: 98.8 mL/min/kg | half-life [2, 10]: 60 min | MRT ([2]; male, BALB/cAnNCrl, mouse, in vivo, iv, 1.062 umol/kg, iv bolus, mice, Mean, read-out: MRT): 48 min | Vd ([2]; male, BALB/cAnNCrl, mouse, in vivo, iv, 1.062 umol/kg, iv bolus, mice, Mean, read-out: Vss): 4.5 L/kg | Vd ([2]; male, BALB/cAnNCrl, mouse, in vivo, iv, 1 mg/kg, mice, 1 mg kg-1 iv bolus, read-out: VSS): 4.54 L/kg | clearance ([2]; male, BALB/cAnNCrl, mouse, in vivo, iv, 1 mg/kg, plasma clearance, mice, 1 mg kg-1 iv bolus): 98.8 mL/min/kg | half-life ([2]; male, BALB/cAnNCrl, mouse, in vivo, iv, 1 mg/kg, plasma, mice, 1 mg kg-1 iv bolus): 61.8 min | AUC ([2]; mouse, in vivo, iv): 164 h nM/(nmol kg-1) | Cmax ([2]; mouse, in vivo, iv): 415 nM/(nmol kg-1) | Plasma concentration 6 h ([2]; mouse, in vivo, iv): BLOQ | Plasma concentration 24 h ([2]; mouse, in vivo, iv): BLOQ | Supplementary Figure 2 dose-response value, starvation-induced non-replicating H37Rv cells ([3]; Conc. 0.0488281 µM): 103.448 and 95.0508 and 97.0505 | Supplementary Figure 2 dose-response value, starvation-induced non-replicating H37Rv cells ([3]; Conc. 0.0976562 µM): 90.7405 and 81.0762 and 83.793 | Supplementary Figure 2 dose-response value, starvation-induced non-replicating H37Rv cells ([3]; Conc. 0.195312 µM): 92.9713 and 85.6175 and 87.7368 | Supplementary Figure 2 dose-response value, starvation-induced non-replicating H37Rv cells ([3]; Conc. 0.390625 µM): 86.478 and 81.4188 and 83.0521 | Supplementary Figure 2 dose-response value, starvation-induced non-replicating H37Rv cells ([3]; Conc. 0.78125 µM): 85.259 and 79.8652 and 81.4825 | Supplementary Figure 2 dose-response value, starvation-induced non-replicating H37Rv cells ([3]; Conc. 1.5625 µM): 86.0796 and 80.7177 and 79.658 | Supplementary Figure 2 dose-response value, starvation-induced non-replicating H37Rv cells ([3]; Conc. 3.125 µM): 84.8208 and 76.8536 and 80.407 | Supplementary Figure 2 dose-response value, starvation-induced non-replicating H37Rv cells ([3]; Conc. 6.25 µM): 82.0881 and 78.7498 and 78.7099 | Supplementary Figure 2 dose-response value, starvation-induced non-replicating H37Rv cells ([3]; Conc. 25 µM): 68.1135 and 65.0382 and 65.6038 | Supplementary Figure 2 dose-response value, starvation-induced non-replicating H37Rv cells ([3]; Conc. 50 µM): 63.9387 and 63.1101 and 60.943 | Supplementary Figure 2 dose-response value, starvation-induced non-replicating H37Rv cells ([3]; Conc. 100 µM): 61.9787 and 54.8959 and 58.7122 | MIC ([4]; Gram-Negative Bacteria, replicates 1-3): >50 µM | MIC ([4]; Pseudomonas aeruginosa, Gram negative, n = 3 well replicates): > 50 µM | MIC ([4]; Pseudomonas aeruginosa, Gram-Negative Bacteria, replicates 1-3): > 47 µg/mL | MIC ([5]; Mycobacterium tuberculosis, mean, n = 2 well replicates): 0.2 µM and 0.2 µg/mL | MIC ([5]; Mycobacterium tuberculosis, single well replicates): 0.19 µM and 0.18 µg/mL | MIC ([5]; single well replicates): 0.19 µM (≈ 0.179 µg/mL) | MIC Mtb # 8673 ([5]; single well replicates): 0.18 µg/mL (≈ 0.191 µM) | MIC (µg/ml) Mycobacterium abscessus ([6]; Experiment 2, three replicate columns): 5.88 µg/mL (≈ 6.25 µM) | MIC ([6]; Experiment 2, three replicate columns, read-out: MIC (µM) Mycobacterium abscessus): 6.25 µM | MIC ([6]; Mycobacteroides abscessus, Experiment 1, read-out: MIC Mycobacterium abscessus): 3.1 µM and 2.9 µg/mL | MIC ([6]; Mycobacteroides abscessus, Experiment 2, three replicate columns, read-out: MIC (µM) Mycobacterium abscessus): 6.25 µM | MIC ([6]; Mycobacteroides abscessus, Experiment 2, three replicate columns, read-out: MIC (µg/ml) Mycobacterium abscessus): 5.88 µg/mL | MIC ([6]; Mycobacteroides abscessus, mean ± SD, read-out: MIC Mycobacterium abscessus): 5.5 ± 1.6 µM | Emax [7]: 1.14 | intracellular viable mycobacteria ([7]; 0.195µM, Day 4, well replicates): 5.51 log10 cfu/ml | intracellular viable mycobacteria ([7]; 0.195µM, Day 7, well replicates): 5.68 log10 cfu/ml | intracellular viable mycobacteria ([7]; 0.781µM, Day 4, well replicates): 4.46 log10 cfu/ml and 4.51 log10 cfu/ml | intracellular viable mycobacteria ([7]; 3.125µM, Day 4, well replicates): 4.19 log10 cfu/ml and 4.2 log10 cfu/ml | intracellular viable mycobacteria ([7]; 3.125µM, Day 7, well replicates): 4.96 log10 cfu/ml
